Measurements as given in publication PMC9882114 (bioRxiv, 2024).

How the values were obtained:
Assay type in all cases: biochemical
iNicSnFR11 = experiment: Fluorescence dose-response relations of nicotinic drugs at purified iNicSnFR11; details: purified iNicSnFR11 100 nM, 3×PBS pH 7.40, Hill fit
iNicSnFR12 [1] = experiment: Fluorescence dose-response relations of nicotinic drugs at purified iNicSnFR12
iNicSnFR12 [2] = details: read-out: EC50, μM (Figure 1B, 1C, purified sensors); n = 3
iNicSnFR12-S467R = experiment: Nicotine-induced fluorescence increase of purified iNicSnFR12-S467R, Hill fit; details: read-out: EC50 (nicotine-induced fluorescence, iNicSnFR12-S467R); SEM, n = 3

EC50 (iNicSnFR12-S467R) [µM]	Compound	EC50 (iNicSnFR11) [µM]	expected activation at iNicSnFR12 (iNicSnFR12 [1]; [choline] 1 μM as in 10% rat serum)	expected activation at iNicSnFR12 (iNicSnFR12 [1]; [choline] 2.5 μM as in 25% human serum) [%]	EC50 (iNicSnFR12 [2]) [µM]
	C[N+](C)(C)CCO [choline]	~170	at most 1%	≤ 2.5	≥ 100
25.6	CN1CCC[C@H]1c1cccnc1 [nicotine]				
